Results on 14 molecules are retold here after ChEMBL document CHEMBL1208761, “Smoothened antagonists for hair inhibition” (Bioorg Med Chem Lett, 2010).

Series [1] deals with T1, Protein smoothened (Homo sapiens, UniProt Q99835). In words: Inhibition of Smoothened transfected in HEK293 cells by transient transfection cell-based assay.
The target in series [2] is T1, Protein smoothened. In words: Inhibition of Smoothened transfected in HEK293 cells by binding assay. It is filed as cell-based.
For a further series, the species on record is Mus musculus. In words: Inhibition of hair growth in C3H/HeN mouse model assessed as inhibition of hair growth after 14 days. It is filed as functional.
The nature of series [3]: Metabolic stability in rat liver microsomes assessed as half life. It is filed as ADME, Microsome. A general note: Liver microsomes are a subcellular fraction often used to study metabolism.
Series [4] in a line: Metabolic stability in human liver microsomes assessed as half life. In kind it is ADME, Microsome.
Series [5] is described as follows: Solubility of the compound. In kind it is physicochemical.
Series [6] is described as follows: Inhibition of CYP450. It is filed as ADME.
A further series addresses hERG (KCNH2) (Homo sapiens, UniProt Q12809). In words: Inhibition of human ERG at 3 uM.
A further series relates to Zone of skin. In words: Permeability of the compound in human skin assessed as skin penetration relative to isobutylmethylxanthine. In kind it is ADME, tissue-based.
Series [7] is described as follows: Apparent permeability from apical to basolateral side of cell membrane at 10 uM. It is filed as ADME. As to conditions: not told.
Series [8] deals with T2, 5-hydroxytryptamine receptor 1A (Homo sapiens, UniProt P08908).
T2 sequence (P08908 whole entry): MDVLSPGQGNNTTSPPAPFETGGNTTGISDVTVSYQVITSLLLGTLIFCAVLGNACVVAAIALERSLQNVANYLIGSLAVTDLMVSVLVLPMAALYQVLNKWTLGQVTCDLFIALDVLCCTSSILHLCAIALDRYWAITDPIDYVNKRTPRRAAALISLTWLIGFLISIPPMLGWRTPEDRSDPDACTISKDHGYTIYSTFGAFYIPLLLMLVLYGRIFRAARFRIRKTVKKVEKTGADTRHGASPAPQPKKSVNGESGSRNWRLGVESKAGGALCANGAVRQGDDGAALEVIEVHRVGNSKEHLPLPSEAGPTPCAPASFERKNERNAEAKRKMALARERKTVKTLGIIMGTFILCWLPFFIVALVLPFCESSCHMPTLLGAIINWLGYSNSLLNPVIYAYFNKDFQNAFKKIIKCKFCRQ
In words: Binding affinity to 5HT1A receptor.

Series [9] concerns the target 5-hydroxytryptamine receptor 2A (Homo sapiens, UniProt P28223). In words: Binding affinity to 5HT2A receptor.
Series [10] concerns the target T3, Alpha-1A adrenergic receptor (Homo sapiens, UniProt P35348).
T3 sequence (P35348 whole entry): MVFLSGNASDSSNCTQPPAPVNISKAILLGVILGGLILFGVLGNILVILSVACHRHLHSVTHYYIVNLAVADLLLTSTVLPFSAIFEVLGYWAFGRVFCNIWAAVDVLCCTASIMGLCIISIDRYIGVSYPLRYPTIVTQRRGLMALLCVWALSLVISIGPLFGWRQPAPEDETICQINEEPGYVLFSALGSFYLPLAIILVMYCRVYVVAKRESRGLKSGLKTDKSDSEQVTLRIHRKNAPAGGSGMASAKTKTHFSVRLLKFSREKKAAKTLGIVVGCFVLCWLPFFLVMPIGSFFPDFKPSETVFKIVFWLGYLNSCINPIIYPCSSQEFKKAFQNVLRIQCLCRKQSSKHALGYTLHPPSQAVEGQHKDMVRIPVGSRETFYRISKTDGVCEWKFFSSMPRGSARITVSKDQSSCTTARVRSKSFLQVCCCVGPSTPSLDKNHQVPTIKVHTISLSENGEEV
In words: Binding affinity to adrenergic Alpha-1A receptor.

A further series has as its target T4, D(4) dopamine receptor (Homo sapiens, UniProt P21917).
T4 sequence (P21917 whole entry): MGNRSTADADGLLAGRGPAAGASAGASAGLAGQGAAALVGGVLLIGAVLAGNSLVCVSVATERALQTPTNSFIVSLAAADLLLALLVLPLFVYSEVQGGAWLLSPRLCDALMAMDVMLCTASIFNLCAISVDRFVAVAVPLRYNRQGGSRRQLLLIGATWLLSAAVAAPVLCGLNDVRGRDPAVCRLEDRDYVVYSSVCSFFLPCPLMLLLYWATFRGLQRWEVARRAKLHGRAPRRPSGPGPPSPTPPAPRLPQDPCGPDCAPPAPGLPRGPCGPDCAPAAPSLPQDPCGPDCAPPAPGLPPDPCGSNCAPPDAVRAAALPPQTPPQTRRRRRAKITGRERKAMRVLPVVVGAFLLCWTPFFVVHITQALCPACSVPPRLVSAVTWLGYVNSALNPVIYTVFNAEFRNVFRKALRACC
In words: Binding affinity to dopamine D4 receptor.

In series [11] the target is T5, Alpha-1B adrenergic receptor (Homo sapiens, UniProt P35368).
T5 sequence (P35368 whole entry): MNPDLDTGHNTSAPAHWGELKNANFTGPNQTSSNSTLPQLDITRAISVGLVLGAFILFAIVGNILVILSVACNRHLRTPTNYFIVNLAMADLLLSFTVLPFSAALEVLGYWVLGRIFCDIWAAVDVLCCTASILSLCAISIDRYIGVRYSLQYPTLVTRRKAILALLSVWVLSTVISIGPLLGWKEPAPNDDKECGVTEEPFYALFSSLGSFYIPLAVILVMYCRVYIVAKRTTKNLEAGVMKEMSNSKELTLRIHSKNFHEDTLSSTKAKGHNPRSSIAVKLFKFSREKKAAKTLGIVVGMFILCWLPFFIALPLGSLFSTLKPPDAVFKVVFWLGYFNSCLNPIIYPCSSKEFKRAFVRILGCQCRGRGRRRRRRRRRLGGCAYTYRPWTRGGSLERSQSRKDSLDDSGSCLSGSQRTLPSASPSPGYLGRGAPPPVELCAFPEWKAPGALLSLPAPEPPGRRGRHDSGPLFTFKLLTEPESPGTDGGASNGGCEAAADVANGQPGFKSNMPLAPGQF
In words: Binding affinity to adrenergic alpha-1b receptor.

The target of series [12] is Voltage-gated inwardly rectifying potassium channel KCNH2 (Homo sapiens, UniProt Q12809). In words: Binding affinity to human ERG.
Series [13] has as its target Beta-2 adrenergic receptor (Homo sapiens, UniProt P07550). In words: Binding affinity to beta2 adrenergic receptor.
The target of series [14] is 5-hydroxytryptamine receptor 7 (Homo sapiens, UniProt P34969). In words: Binding affinity to 5HT7 receptor.
5-hydroxytryptamine receptor 7, sequence (P34969 whole entry): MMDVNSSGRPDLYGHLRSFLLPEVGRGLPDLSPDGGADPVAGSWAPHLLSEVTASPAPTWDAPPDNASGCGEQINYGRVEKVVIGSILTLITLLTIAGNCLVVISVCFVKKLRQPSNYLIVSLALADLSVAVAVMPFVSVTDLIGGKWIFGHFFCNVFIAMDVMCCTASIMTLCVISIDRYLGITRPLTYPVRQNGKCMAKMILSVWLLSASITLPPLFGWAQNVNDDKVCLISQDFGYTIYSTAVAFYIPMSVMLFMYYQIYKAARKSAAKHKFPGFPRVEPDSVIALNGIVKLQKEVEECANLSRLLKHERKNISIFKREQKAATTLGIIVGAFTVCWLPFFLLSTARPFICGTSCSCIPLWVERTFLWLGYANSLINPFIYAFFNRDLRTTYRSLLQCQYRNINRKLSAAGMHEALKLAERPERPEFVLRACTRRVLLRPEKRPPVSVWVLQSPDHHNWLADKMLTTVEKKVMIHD
Series [15] has as its target 5-hydroxytryptamine receptor 2B (Homo sapiens, UniProt P41595). In words: Binding affinity to 5HT2B receptor.
The target of series [16] is Beta-1 adrenergic receptor (Homo sapiens, UniProt P08588). In words: Binding affinity to beta-1 adrenergic receptor.
Beta-1 adrenergic receptor, sequence (P08588 whole entry): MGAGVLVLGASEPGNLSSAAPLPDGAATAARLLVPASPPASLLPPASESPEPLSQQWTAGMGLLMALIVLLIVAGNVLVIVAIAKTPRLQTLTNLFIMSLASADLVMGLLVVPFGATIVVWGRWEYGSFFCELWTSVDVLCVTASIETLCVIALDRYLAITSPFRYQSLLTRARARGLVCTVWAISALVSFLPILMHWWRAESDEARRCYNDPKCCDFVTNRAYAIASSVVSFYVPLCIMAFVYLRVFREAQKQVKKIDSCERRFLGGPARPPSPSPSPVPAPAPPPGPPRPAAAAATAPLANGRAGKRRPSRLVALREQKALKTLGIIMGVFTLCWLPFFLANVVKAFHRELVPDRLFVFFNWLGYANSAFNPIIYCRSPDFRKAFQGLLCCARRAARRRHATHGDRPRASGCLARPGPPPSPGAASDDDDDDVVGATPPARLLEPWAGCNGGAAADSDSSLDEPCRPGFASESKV
A further series concerns the target D(1A) dopamine receptor (Homo sapiens, UniProt P21728). In words: Binding affinity to dopamine D1 receptor.
For the next series, the target named is D(2) dopamine receptor (Homo sapiens, UniProt P14416). In words: Binding affinity to dopamine D2 receptor.
D(2) dopamine receptor, sequence (P14416 whole entry): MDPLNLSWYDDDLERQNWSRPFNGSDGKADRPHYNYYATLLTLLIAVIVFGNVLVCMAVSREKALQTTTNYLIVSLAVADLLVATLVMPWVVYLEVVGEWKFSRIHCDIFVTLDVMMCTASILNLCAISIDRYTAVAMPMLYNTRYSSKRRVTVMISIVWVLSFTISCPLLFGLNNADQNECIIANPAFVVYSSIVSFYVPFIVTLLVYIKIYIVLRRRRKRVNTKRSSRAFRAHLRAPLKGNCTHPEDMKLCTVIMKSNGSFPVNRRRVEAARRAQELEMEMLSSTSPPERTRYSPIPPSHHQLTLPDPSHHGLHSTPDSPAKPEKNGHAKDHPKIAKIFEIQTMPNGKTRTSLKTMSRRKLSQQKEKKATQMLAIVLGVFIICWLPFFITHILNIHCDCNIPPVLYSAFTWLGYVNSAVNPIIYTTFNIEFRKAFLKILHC
Series [17] is described as follows: Binding affinity to calcium channel.

≈ marks a conversion by molar mass, not a printed value. Where “and” joins values, the source holds several entries; their conditions need not be identical. Identical values can stand only once. Calls of active or inactive are those of the source. The calls are words filed in the database; no cut-off is given here.

As a reminder, the IC50 is the concentration that inhibits the measured activity by half. A word on the half-life: it is how long it takes for the measured level to halve. For orientation: solubility means the dissolved amount per volume that the medium holds. A lower solubility goes with a poorly soluble substance. One may read the inhibition as the change of the read-out against control, counted positive when it falls. Read a low inhibition as little suppression. As usually defined, the Papp A→B is how fast a substance crosses the layer from the apical side. One may read the Ki as a measure of affinity in units of concentration, obtained from inhibition or displacement.

T1 sequence (Q99835 whole entry): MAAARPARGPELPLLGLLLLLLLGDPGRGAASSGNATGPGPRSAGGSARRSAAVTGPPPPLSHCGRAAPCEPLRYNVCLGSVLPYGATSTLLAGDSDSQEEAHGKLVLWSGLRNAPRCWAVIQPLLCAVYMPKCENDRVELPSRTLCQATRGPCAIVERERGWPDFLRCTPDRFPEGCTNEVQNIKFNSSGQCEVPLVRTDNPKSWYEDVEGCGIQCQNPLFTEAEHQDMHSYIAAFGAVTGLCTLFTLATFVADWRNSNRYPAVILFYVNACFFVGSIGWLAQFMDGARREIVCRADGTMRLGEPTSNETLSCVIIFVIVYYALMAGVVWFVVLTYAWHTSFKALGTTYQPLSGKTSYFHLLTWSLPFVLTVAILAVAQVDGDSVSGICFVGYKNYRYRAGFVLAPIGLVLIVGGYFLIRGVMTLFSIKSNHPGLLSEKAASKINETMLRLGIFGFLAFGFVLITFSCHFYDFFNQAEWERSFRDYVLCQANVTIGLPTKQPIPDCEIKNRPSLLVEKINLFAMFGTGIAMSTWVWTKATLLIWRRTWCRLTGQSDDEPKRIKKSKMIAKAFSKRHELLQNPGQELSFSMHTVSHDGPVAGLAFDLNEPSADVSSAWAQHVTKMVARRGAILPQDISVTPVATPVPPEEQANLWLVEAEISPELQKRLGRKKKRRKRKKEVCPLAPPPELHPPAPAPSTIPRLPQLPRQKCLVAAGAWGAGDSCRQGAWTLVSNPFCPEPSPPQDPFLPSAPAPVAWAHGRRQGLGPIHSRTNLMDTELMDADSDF
5-hydroxytryptamine receptor 2A, sequence (P28223 whole entry): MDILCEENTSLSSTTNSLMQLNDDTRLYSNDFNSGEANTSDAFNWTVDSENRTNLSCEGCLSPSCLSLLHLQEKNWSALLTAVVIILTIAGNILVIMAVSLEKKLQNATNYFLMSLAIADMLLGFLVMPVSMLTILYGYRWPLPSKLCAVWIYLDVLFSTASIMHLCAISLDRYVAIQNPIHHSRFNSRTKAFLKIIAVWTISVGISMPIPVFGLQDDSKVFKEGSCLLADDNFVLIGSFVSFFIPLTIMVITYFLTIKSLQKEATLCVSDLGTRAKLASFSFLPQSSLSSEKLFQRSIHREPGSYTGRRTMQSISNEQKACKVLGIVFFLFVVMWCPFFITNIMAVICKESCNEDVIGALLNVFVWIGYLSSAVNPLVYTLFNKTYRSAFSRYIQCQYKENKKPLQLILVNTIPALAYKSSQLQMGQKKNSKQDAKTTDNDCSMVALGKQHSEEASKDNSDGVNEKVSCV
D(1A) dopamine receptor, sequence (P21728 whole entry): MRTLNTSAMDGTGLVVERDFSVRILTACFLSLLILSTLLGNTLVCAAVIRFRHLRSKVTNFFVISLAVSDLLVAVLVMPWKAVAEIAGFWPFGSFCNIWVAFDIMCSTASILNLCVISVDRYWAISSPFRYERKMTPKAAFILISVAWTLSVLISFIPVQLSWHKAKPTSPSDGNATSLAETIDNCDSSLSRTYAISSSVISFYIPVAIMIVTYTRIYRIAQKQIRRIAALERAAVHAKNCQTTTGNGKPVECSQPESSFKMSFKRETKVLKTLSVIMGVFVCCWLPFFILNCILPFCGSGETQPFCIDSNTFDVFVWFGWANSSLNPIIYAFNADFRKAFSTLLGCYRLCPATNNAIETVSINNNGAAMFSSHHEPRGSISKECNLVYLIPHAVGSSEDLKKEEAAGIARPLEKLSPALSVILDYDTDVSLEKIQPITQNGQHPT
5-hydroxytryptamine receptor 2B, sequence (P41595 whole entry): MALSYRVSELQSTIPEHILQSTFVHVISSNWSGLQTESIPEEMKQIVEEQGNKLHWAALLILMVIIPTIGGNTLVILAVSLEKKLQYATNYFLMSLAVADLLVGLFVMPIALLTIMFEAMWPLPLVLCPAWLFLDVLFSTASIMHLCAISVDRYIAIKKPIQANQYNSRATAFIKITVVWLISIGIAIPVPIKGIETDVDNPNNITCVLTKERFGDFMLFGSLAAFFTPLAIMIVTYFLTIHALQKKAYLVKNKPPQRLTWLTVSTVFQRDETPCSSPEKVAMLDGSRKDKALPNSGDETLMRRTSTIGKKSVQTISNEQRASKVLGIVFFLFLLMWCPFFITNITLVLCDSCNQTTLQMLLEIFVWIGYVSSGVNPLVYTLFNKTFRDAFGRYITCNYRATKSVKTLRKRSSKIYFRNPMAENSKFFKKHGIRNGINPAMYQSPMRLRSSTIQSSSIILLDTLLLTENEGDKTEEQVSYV
Beta-2 adrenergic receptor, sequence (P07550 whole entry): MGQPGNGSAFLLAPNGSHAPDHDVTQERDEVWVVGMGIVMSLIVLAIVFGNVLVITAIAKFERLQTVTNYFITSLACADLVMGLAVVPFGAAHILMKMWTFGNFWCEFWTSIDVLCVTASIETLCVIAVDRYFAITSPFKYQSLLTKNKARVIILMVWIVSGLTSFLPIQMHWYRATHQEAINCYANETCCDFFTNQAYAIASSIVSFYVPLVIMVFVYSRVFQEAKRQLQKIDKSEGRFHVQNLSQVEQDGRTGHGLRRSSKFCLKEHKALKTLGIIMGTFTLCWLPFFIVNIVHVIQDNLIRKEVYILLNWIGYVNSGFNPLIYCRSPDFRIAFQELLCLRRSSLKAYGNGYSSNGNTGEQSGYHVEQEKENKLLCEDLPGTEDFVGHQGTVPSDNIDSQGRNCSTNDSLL

As for `COc1cccc(N2CCN(Cc3cnn(-c4ccc(F)cc4)c3C)CC2)c1`, the IC50 against Protein smoothened [1] is 0.0647 µM; on Protein smoothened [2], 0.005 µM.

Regarding `COc1ccc(N2CCN(Cc3cnn(-c4ccccc4)c3C)CC2)cc1`, the concentration for half-maximal inhibition (IC50) at Protein smoothened [1] came to 0.105 µM; on Protein smoothened [2], 0.126 µM.

In the case of `COc1ccc(N2CCN(Cc3cn(-c4ccccc4)nc3C)CC2)cc1`, the half-maximal inhibitory concentration (IC50) against Protein smoothened [1] and at Protein smoothened [2] was more than 5 µM in each case.

For `NCCCC(N)(C(=O)O)C(F)F` (configuration not stated) [EFLORNITHINE], the “inhibition (INH)” value in the series listed under Mus musculus was 13.9%.

Turning to `Cc1c(CN2CCN(c3cccc(C(F)(F)F)c3)CC2)cnn1-c1ccccc1`, the concentration for half-maximal inhibition (IC50) was determined as 0.328 µM against Protein smoothened [1] and 0.333 µM on Protein smoothened [2].

Consider `Cc1c(CN2CCN(c3ccccc3)CC2)cnn1-c1ccccc1`, for which the figures for the half-maximal inhibitory concentration (IC50) against Protein smoothened [1] and at Protein smoothened [2] were 0.0784 µM and 0.096 µM, respectively.

With `COc1cccc(F)c1OC1CN(Cc2cnn(-c3ccccc3)c2C)C1`, the figures for the IC50 on Protein smoothened [1] and on Protein smoothened [2] were 0.00827 µM and 0.124 µM, respectively. For the same molecule, the “hair growth inhibition (active/inactive call)” value in the series filed under Mus musculus is “Active”. Moreover, the half-life stood at 9.7 min in [3] and 30.2 min in series [4]. This molecule registered a solubility in series [5] of 0.079 mg/mL (≈ 215 µM). Besides, in [6], the “inhibition (INH)” value is “Not Active”. The same molecule returned an inhibition at 3 µM against hERG (KCNH2) of 56%. In addition, the Ratio in the series with Zone of skin was determined as 0.52. In addition, the Papp A→B at 10 µM in series [7] was found to be 113 nm/s. Further, the Ki in series [8] was more than 1 µM; in series [9], more than 1 µM; in [10], 0.076 µM; on D(4) dopamine receptor, 0.148 µM and > 1 µM; in series [11], more than 1 µM; in series [12], more than 1 µM.

Consider `Cc1nn(-c2ccccc2)c(C)c1/C=N/N1CCN(Cc2ccccc2)CC1`, for which the IC50 on Protein smoothened [1] was found to be 0.00474 µM; on Protein smoothened [2] it was 0.025 µM. Besides, the “inhibition (INH)” value in the series filed under Mus musculus is listed as 3%.

In the case of `Cc1nn(-c2ccccc2)cc1CN1CCN(c2ccc(F)cc2)CC1`, the 50% inhibitory concentration (IC50) against Protein smoothened [1] and at Protein smoothened [2] was more than 5 µM throughout.

Turning to `COc1ccc(N2CCN(Cc3c(C)nn(-c4ccc(F)cc4)c3C)CC2)cc1`, the figures for the concentration for half-maximal inhibition (IC50) at Protein smoothened [1] and at Protein smoothened [2] were 1.69 µM and 2 µM, respectively.

Regarding `COc1ccccc1N1CCN(Cc2c(C)nn(-c3ccccc3)c2C)CC1`, the IC50 at Protein smoothened [1] is 1.87 µM; on Protein smoothened [2] it was more than 5 µM.

`COc1cccc(N2CCN(Cc3c(C)nn(-c4ccc(F)cc4)c3C)CC2)c1`: the half-maximal inhibitory concentration (IC50) at Protein smoothened [1] came to 0.823 µM; at Protein smoothened [2] it was 0.02 µM.

On to `COc1ccc(OC)c(C2CCN(Cc3cnn(-c4ccccc4F)c3C)C2)c1` (configuration not stated), for which the IC50 on Protein smoothened [1] was found to be 0.0408 µM; at Protein smoothened [2], 0.216 µM. In addition, the “hair growth inhibition (active/inactive call)” value in the series listed under Mus musculus was “Active”. Besides, the inhibition constant (Ki) is more than 1 µM in series [13]; 0.103 µM in [8]; 0.015 µM in [14]; 0.18 µM in series [15]; more than 1 µM in series [16]; more than 1 µM on D(1A) dopamine receptor. Also, the Ki (at D(2) dopamine receptor; in series [9]; in [17]) was more than 1 µM each time.

On to `Cc1nn(-c2ccccc2)c(Cl)c1CN1CCN(c2ccc(F)cc2)CC1`, for which the figures for the half-inhibitory concentration (IC50) at Protein smoothened [1] and at Protein smoothened [2] were 1.86 µM and 0.01 µM, respectively.
